{"source": "BindingDB's records for doi:10.1021/jm3012917", "about": "(Philipps University Marburg, 2013)", "biological_target": "Coagulation factor VII (Homo sapiens) (UniProt P08709)", "sequence (P08709 whole entry, looked up)": "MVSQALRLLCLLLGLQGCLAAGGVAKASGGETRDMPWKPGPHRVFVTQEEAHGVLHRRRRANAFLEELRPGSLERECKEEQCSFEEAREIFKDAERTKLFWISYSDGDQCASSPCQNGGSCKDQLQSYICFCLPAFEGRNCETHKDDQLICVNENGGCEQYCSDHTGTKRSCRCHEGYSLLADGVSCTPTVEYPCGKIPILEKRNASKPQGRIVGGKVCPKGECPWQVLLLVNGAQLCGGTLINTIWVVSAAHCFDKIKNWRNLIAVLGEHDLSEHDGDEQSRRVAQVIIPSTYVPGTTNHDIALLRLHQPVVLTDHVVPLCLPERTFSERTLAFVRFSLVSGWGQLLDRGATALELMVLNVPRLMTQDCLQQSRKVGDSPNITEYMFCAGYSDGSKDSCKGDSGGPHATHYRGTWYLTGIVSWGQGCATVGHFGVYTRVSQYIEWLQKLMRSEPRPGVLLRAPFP", "test": "Inhibition of human FVIIa"}
{"smiles": "N=C(N)c1ccc(CNC(=O)[C@@H]2Cc3ccc(cc3)NC(=O)CCN3CCN(CCC(=O)Nc4ccc(cc4)C[C@@H](NS(=O)(=O)Cc4ccccc4)C(=O)N2)CC3)cc1", "values": [{"measurement": "Ki", "result": "> 50", "unit": "µM"}]}
{"smiles": "N=C(N)c1ccc(CNC(=O)[C@@H]2Cc3ccc(cc3)NC(=O)CN3CCN(CC3)CC(=O)Nc3ccc(cc3)C[C@@H](NS(=O)(=O)Cc3ccccc3)C(=O)N2)cc1", "values": [{"measurement": "Ki", "result": "> 30", "unit": "µM"}]}
